Values of other authors, collected in patent publication EP0486445A2, “Polyfunctional derivatives of cyclodextrin” (Chiellini, Emo, priority 1990, dated 1992).

Columns and labels:
[1] = compared to the starting cyclodextrin; degree of substitution lower than 7
[2] = compared to the starting cyclodextrin

Row | Molecule | toxicity [1] | water solubility [2]
1 | 2-hydroxypropyl- β-cyclodextrin [HP- βCD] | lower toxicity | much larger water solubility
2 | COC[C@H]1O[C@@H]2O[C@H]3[C@H](O)[C@@H](OC)[C@@H](O[C@H]4[C@H](O)[C@@H](OC)[C@@H](O[C@H]5[C@H](O)[C@@H](OC)[C@@H](O[C@H]6[C@H](O)[C@@H](OC)[C@@H](O[C@H]7[C@H](O)[C@@H](OC)[C@@H](O[C@H]8[C@H](O)[C@@H](OC)[C@@H](O[C@H]1[C@H](O)[C@H]2OC)O[C@@H]8COC)O[C@@H]7COC)O[C@@H]6COC)O[C@@H]5COC)O[C@@H]4COC)O[C@@H]3COC [DM-β CD, eptakis-(2,6-O-dimethyl)-β-cyclodextrin] | – | much more water soluble
3 | hydroxyethyl-β-cyclodextrin [HE- βCD] | lower toxicity | much larger water solubility
